Structures are written as SMILES. Some results are limits rather than exact numbers.

As usually defined, the IC50 is the concentration at which inhibition is half-maximal.

In one experiment the target is T1, P2X7 receptor (Homo sapiens, UniProt Q99572).
T1 construct: host or cells: SH-SY5Y
T1 sequence (Q99572 1-595): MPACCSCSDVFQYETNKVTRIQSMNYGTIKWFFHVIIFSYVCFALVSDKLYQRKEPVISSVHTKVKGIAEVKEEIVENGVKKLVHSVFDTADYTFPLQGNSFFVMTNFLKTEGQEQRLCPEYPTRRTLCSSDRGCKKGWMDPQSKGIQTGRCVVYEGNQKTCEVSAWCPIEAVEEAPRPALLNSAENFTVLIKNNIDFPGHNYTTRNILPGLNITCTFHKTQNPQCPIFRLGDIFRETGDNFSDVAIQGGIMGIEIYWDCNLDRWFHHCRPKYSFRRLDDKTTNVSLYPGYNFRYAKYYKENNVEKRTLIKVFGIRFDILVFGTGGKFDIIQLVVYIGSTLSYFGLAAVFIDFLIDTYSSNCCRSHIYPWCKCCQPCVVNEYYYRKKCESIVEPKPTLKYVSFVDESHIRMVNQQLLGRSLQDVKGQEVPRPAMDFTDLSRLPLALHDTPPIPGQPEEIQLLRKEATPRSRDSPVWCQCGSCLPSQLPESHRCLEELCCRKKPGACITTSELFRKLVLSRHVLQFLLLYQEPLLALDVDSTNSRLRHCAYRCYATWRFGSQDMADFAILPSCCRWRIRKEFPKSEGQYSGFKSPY
Briefly: P2X7 calcium mobilization assay, high throughput, antagonist activity (Example 4A). The experiment is classed as cell-based. Particulars: 50% decrease in the fluorescence response of cells exposed to 80 μM 2′(3′)-O-(4-benzoyl-benzoyl)adenosine 5′-triphosphate; Example 4A; read-out: IC50. Summed up: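 Cells plated 100,000/well the day before; after 1 h dye loading and one rinse, cells were preincubated 1 h at room temperature with test compound. Calcium mobilization then read on FLIPR^TETRA; maximum RFU corrected by subtracting mean no-agonist response and referenced to mean agonist-control maximum.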
In general terms: A change in cytosolic calcium serves as a functional read-out for many receptors and channels.
Consider `CC(C)(C)[C@@H](CO)NC(=O)c1cn2c(C(=O)NC[C@@H]3CC[C@H]4C[C@@H]3C4(C)C)cccc2n1` [Compound 522, 5-N-{[(1S,2R,5S)-6,6-dimethylbicyclo[3.1.1]hept-2-yl]methyl}-2-N-[(1S)-1-(hydroxymethyl)-2,2-dimethylpropyl] imidazo[1,2-a] pyridine-2,5-dicarboxamide], for which the IC50 is < 2000 nM.
Regarding `O=C(CC12CC3CC(CC(C3)C1)C2)Nc1cccc2nc(C(=O)N3CCCC(O)C3)cn12` (centres unmarked) [Compound 418, 2-adamantan-1-yl-N-{2-[(3-hydroxypiperidin-1-yl)carbonyl]imidazo [1,2-a]pyridin-5-yl}acetamide], the IC50 is < 2000 nM.
With `O=C(NCC12CC3CC(CC(C3)C1)C2)c1cccc2nc(CS(=O)(=O)c3nnc[nH]3)cn12` [Compound 449, N-(adamantan-1-ylmethyl)-2-[(4H-1,2,4-triazol-3-ylsulfonyl)methyl] imidazo [1,2-a]pyridine-5-carboxamide], the IC50 was < 2000 nM.
Regarding `CC1(C)[C@H]2CC[C@@H](CNC(=O)c3cccc4nc(C(=O)NCC5CC5)cn34)[C@@H]1C2` [Compound 497, 2-N-(cyclopropylmethyl)-5-N-{[(1S,2R,5S)-6,6-dimethylbicyclo[3.1.1]hept-2-yl]methyl}imidazo[1,2-a]pyridine-2,5-dicarboxamide], the 50% inhibitory concentration (IC50) was < 2000 nM.
Take `CC(C)NCc1cn2c(C(=O)NCC34CC5CC(CC(C5)C3)C4)cccc2n1` [Compound 597, N-(adamantan-1-ylmethyl)-2-[(isopropylamino)methyl]imidazo [1,2-a]pyridine-5-carboxamide]: the IC50 was < 2000 nM.

The experiment is the same for the next values; noted with them: 50% decrease in the fluorescence response of cells exposed to 80 μM of 2′(3′)-O-(4-benzoyl-benzoyl)adenosine 5′-triphosphate; Example 4A; read-out: IC50.
As for `CC(C)c1ccc(CN(C)C(=O)c2cn3c(C(=O)NCC45CC6CC(CC(C6)C4)C5)cccc3n2)nc1` [Compound 716, 5-N-(adamantan-1-ylmethyl)-2-N-[(5-isopropylpyridin-2-yl)methyl]-2-N-methylimidazo[1,2-a]pyridine-2,5-dicarboxamide], the IC50 is < 2000 nM.
With `CC(Cc1nnn[nH]1)c1cn2c(C(=O)NCC34CC5CC(CC(C5)C3)C4)cccc2n1` (centres unmarked) [Compound 781, N-(adamantan-1-ylmethyl)-2-[1-methyl-2-(1H-tetrazol-5-yl)ethyl] imidazo[1,2-a] pyridine-5-carboxamide], the IC50 is < 2000 nM.
For `CCOC(=O)C(Cc1cn2c(C(=O)NCC34CC5CC(CC(C5)C3)C4)cccc2n1)C(=O)OC(C)(C)C` (centres unmarked) [Compound 728, tert-butyl ethyl ({5-[(adamantan-1-ylmethyl)carbamoyl]imidazo[1,2-a]pyridin-2-yl}methyl)malonate], the IC50 is < 2000 nM.
Regarding `CCOC(=O)C(CC(=O)N1CCOCC1)c1cn2c(C(=O)NCC34CC5CC(CC(C5)C3)C4)cccc2n1` (centres unmarked) [Compound 802, ethyl 2-{5-[(adamantan-1-ylmethyl)carbamoyl]imidazo[1,2-a]pyridin-2-yl}-4-morpholin-4-yl-4-oxobutanoate], the IC50 is < 2000 nM.
As for `CC(C)c1ccc(CN(C)C(=O)c2cn3c(C(=O)NCC45CC6CC(CC(C6)C4)C5)cccc3n2)cn1` [Compound 717, 5-N-(adamantan-1-ylmethyl)-2-N-[(6-isopropylpyridin-3-yl)methyl]-2-N-methylimidazo[1,2-a]pyridine-2,5-dicarboxamide], the half-inhibitory concentration (IC50) is < 2000 nM.

The same experiment, now with this note: 50% decrease in the fluorescence response of cells exposed to 80 μM of 2′(3′)-O-(4-benzoyl-benzoyl)adenosine 5′-triphosphate; determined as in Example 4A; read-out: IC50.
As for `O=C(Cc1cn2c(C(=O)NCC34CC5CC(CC(C5)C3)C4)cccc2n1)N[C@H]1CCCNC1` [Compound 852, N-(adamantan-1-ylmethyl)-2-{2-oxo-2-[(3S)-piperidin-3-ylamino]ethyl} imidazo [1,2-a]pyridine-5-carboxamide], the IC50 was < 2000 nM.
With `CC(C)CC(CNC(=O)c1cccc2nc(Cn3nccc3N)cn12)c1ccc(Cl)cc1` (centres unmarked) [Compound 836, 2-[(5-amino-1H-pyrazol-1-yl)methyl]-N-[2-(4-chlorophenyl)-4-methylpentyl] imidazo [1,2-a]pyridine-5-carboxamide], the IC50 is < 2000 nM.
On to `O=C(NCC1(c2ccc(C(F)(F)F)cc2)CCCCC1)c1cccc2nc(Cn3nnc(CCO)n3)cn12` [Compound 920, 2-{[5-(2-hydroxyethyl)-2H-tetrazol-2-yl]methyl}-N-({1-[4-(trifluoromethyl)phenyl]cyclohexyl}methyl)imidazo [1,2-a]pyridine-5-carboxamide], for which the IC50 is < 2000 nM.
Still for that read-out and setting: the result for `CC(C)CC(CNC(=O)c1cccc2nc(C(Cc3ccccn3)C(=O)O)cn12)c1ccc(Cl)cc1` (centres unmarked) [Compound 938, 2-(5-{[2-(4-chlorophenyl)-4-methylpentyl]carbamoyl}imidazo[1,2-a]pyridin-2-yl)-3-pyridin-2-ylpropanoic acid] reads < 2000 nM; that for `CC(C)(C)[Si](C)(C)OCCCn1ccc(NCc2cn3c(C(=O)NCC45CC6CC(CC(C6)C4)C5)cccc3n2)n1` [Compound 999, N-(adamantan-1-ylmethyl)-2-({[1-(3-{[tert-butyl (dimethyl)silyl]oxy}propyl)-1H-pyrazol-3-yl]amino}methyl) imidazo[1,2-a] pyridine-5-carboxamide], < 2000 nM.

The same experiment, now with this note: SH-SY5Y cells; 50% decrease in fluorescence response to 80 μM BzATP; read-out: IC50.
As to `C[C@H]1CN(C(=O)Cc2cn3c(C(=O)NCC45CC6CC(CC(C6)C4)C5)cccc3n2)CCN1` [Compound 140, N-(adamantan-1-ylmethyl)-2-{2-[(3S)-3-methylpiperazin-1-yl]-2-oxoethyl}imidazo[1,2-a]pyridine-5-carboxamide], the IC50 was < 2000 nM.
Turning to `O=C(NCC12CC3CC(CC(C3)C1)C2)c1cccc2nc(CCN3CCC(O)CC3)cn12` [Compound 116, 2-[2-(4-hydroxy-piperidin-1-yl)-ethyl]-imidazo[1,2-a]pyridine-5-carboxylic acid (adamantan-1-ylmethyl)-amide], the IC50 was < 2000 nM.
Take `CC(C)C(=O)NC1CCN(C(=O)Cc2cn3c(C(=O)NCC45CC6CC(CC(C6)C4)C5)cccc3n2)CC1` [Compound 184, N-(adamantan-1-ylmethyl)-2-{2-[4-(isobutyrylamino)piperidin-1-yl]-2-oxoethyl}imidazo[1,2-a]pyridine-5-carboxamide]: the IC50 was < 2000 nM.
On the same count and under the same terms, then `C[C@@H](O)CNC(=O)c1cn2c(C(=O)NCC34CC5CC(CC(C5)C3)C4)cccc2n1` [Compound 81, 5-N-(adamantan-1-ylmethyl)--[(2R)-2-hydroxy-propyl]imidazo[1,2-a]pyridine-2,5-dicarboxamide], with < 2000 nM.

The same experiment, now with this note: fluorescence response of cells exposed to 80 μM 2′(3′)-O-(4-benzoyl-benzoyl)adenosine 5′-triphosphate; Example 4A; read-out: IC50.
On to `CN(C(=O)c1cn2c(NC(=O)CC34CC5CC(CC(C5)C3)C4)cccc2n1)C1CCOC1` (centres unmarked) [Compound 393, 5-[(adamantan-1-ylacetyl)amino]-N-methyl-N-(tetrahydrofuran-3-yl)imidazo[1,2-a]pyridine-2-carboxamide], for which the IC50 was < 2000 nM.
Same read-out and setting: then `Cc1cc(-c2cn3c(C(=O)NCC45CC6CC(CC(C6)C4)C5)cccc3n2)nn1CCO` [Compound 340, N-(adamantan-1-ylmethyl)-2-[1-(2-hydroxyethyl)-5-methyl-1H-pyrazol-3-yl]imidazo[1,2-a]pyridine-5-carboxamide], with < 2000 nM.
Consider `CCN(CCO)C(=O)c1cn2c(NC(=O)CC34CC5CC(CC(C5)C3)C4)cccc2n1` [Compound 414, 5-[(adamantan-1-ylacetyl)amino]-N-ethyl-N-(2-hydroxyethyl)imidazo [1,2-a]pyridine-2-carboxamide], for which the IC50 was < 2000 nM.
Consider `O=C(NCC12CC3CC(CC(C3)C1)C2)c1cccc2nc(CCc3nnn[nH]3)cn12` [Compound 292, N-(adamantan-1-ylmethyl)-2-(2-(1H-tetrazol-5-yl)ethyl]imidazo[1,2-a]pyridine-5-carboxamide], for which the IC50 was < 2000 nM.
